# Laboratory results taken from US8592451B2, “Reversible nondepolarizing neuromuscular blockade agents and methods for their use” (Cornell University, priority 2009, dated 2013).
# What was measured:
# [1] = system: twitch of the extensor digitorum; assay: Neuromuscular blocking potency and duration in anesthetized rhesus monkeys; format: in vivo, rhesus monkeys (Macaca mulatta); conditions: following cumulative dosage, three animals
# Description: Experiments were approved by the Institutional Animal Care and Use Committee of Weill Medical College of Cornell University (New York, N.Y.) and of Albany Medical College (Albany, N.Y.), where the studies were conducted. A colony of 10 adult male monkeys (Macaca mulatta) weighing 8-18 kg was studied at ˜6 week intervals. Animals were housed and cared for in accordance with the Guide for Care and Use of Laboratory Animals (National Research Council, Washington, D.C.). They were fed a standard Old World monkey diet, enriched with fruits and vegetables, and other dietary novelties and were followed throughout the study to verify normal health by physical examination, body weight, and clinical laboratory studies (Complete Blood Count, Blood Urea Nitrogen and creatinine, and liver function tests).
# On the day of each study, monkeys received ketamine (7-10 mg/kg i.m.) followed by tracheal intubation under topical anesthesia with 4% lidocaine. Ventilation was controlled at 10 mL/kg and 20 breaths/min with isoflurane (1.0-2.0%) and N2O/O2 (2:1 mixture). Ringers lactate was administered at ˜10 ml kg^−1 h^−1. Arterial pressure was monitored from a femoral, superficial tibial, or radial (22 gauge) cannula. Heart rate was measured by tachograph from the arterial pulse wave. Core temperature was kept at 36.5-38.0° C. by warming blankets. Electrocardiogram and pulse oximetry were monitored continuously.
# Needle electrodes (25 gauge) transmitting square-wave pulses of 0.2 msec duration at supramaximal voltage which were generated by a Grass S-88 stimulator (Grass Instruments, Quincy, Mass.) were placed at the peroneal nerve at the knee to elicit twitch responses of the extensor digitorum of the foot at 0.15 Hz. A small slip (10-20%) of the tendon was dissected free under sterile technique and tied to a Grass FT 10 force transducer (Grass Instruments, Quincy, Mass.) at a baseline tension of 50 gm. Train-of four stimulation (TOF, 2 Hz for 2 sec) was interposed at appropriate points, especially 1-2 min prior to NMBA dosing and following recovery of twitch to 95% of baseline, where TOF was subsequently evaluated every 1-2 min.
# Recordings of circulatory and neuromuscular data were made on a Grass 7B polygraph (Grass Instruments). A baseline period of 15-20 min was allowed for stabilization of recordings prior to dosing.^2
# Dose-response curves for twitch blockade by gantacurium, CW 002, CW 011, cisatracurium, CW002-Cys, NB 938-69, NB 1064-81, NB 802-17 (CW 001), NB 832-65, and NB 1163-79, structures of which are all shown above, were generated as follows. […] Successive doses were separated by at least three estimated half lives beyond complete recovery of the previous dose to TOF of 110-120%, which is normal for these monkeys. Only the first one or two doses yielding 5 to 99% blockade were included from any single experiment for computation of dose-response data.
# Comparative studies of spontaneous recovery versus antagonism/reversal were done at least 3 estimated half-lives following dose-response studies.
# ED 50 and ED 95 were computed from the regression of log dose vs. the logit of percentage blockade of twitch.
# CW002-Cys, the L-cysteine adduct of CW 002, was available in limited quantity and was administered in cumulative fashion to three animals to compare approximate potency and duration of effect versus its parent compound CW 002.
# [2] = Stability of the CW 002-cysteine adduct (HPLC); format: physicochemical
# Description: [drawing 58] was prepared in one step from CW 002. CW 002 was dissolved in deionized water to give a solution concentration of 37 mg/ml at a pH of 6.6. A 5 mol % excess of L-cysteine hydrochloride monohydrate was added in one portion at ambient temperature to give a solution pH of 2. Stirring for 12 hours gave complete consumption of CW 002, as observed by HPLC. CW002-Cys was isolated as an off-white solid after reaction mixture lyophilization. Product purity was estimated at 95% by HPLC peak area %.
# At low pH and temperature, one new peak was formed on L-cysteine addition as the peak corresponding to CW 002 diminished. This new peak corresponds to the initial peak observed in the in vitro L-cysteine adduction experiments at 37° C. and a pH of 7.4. At elevated temperature and pH, such as conditions used to mimic in vivo reactivity, this initial peak quickly diminishes over time (t½˜60 min) while two new adduct peaks arise secondary to alkaline hydrolysis of the adduct. However, at ambient temperature and a pH of 2, the initial adduct is stable for >24 hours, allowing for isolation of the intermediate.
structure (smiles),measurement,setting,value
COc1ccc(C[C@@H]2c3cc(OC)c(OC)cc3CC[N@@+]2(C)CCCOC(=O)CC(SC[C@@H](N)C(=O)O)C(=O)OCCC[N@+]2(C)CCc3cc(OC)c(OC)cc3[C@H]2Cc2ccc(OC)c(OC)c2)cc1OC (stereo partly drawn) [CW002-Cys],"Duration, spontaneous recovery (times approximate)",[1],~30-35^+++ min
same,half-life,"[2]; 37° C., pH 7.4, read-out: t½ of initial adduct peak (alkaline hydrolysis of the adduct)",~1 h
same,time the initial adduct is stable,"[2]; ambient temperature, pH of 2",> 24 h
